Measured values published in patent US8816089B2, “Methods for controlling SR protein phosphorylation, and antiviral agents whose active ingredients comprise agents that control SR protein activity” (priority 2003, dated 2014).

Tests used:
[1] = system: HIV; assay: HIV infection experiment in MT-4 cells, HIVp24 by Lumipulse ELISA; details: supernatant after 48 hours
[2] = target: SRPK2 (Homo sapiens, UniProt P78362); assay: Kinase phosphorylation assay, same technique as for SRPK1; assay type: biochemical; details: final concentration of 10 μM
SRPK2, sequence (P78362 whole entry, species assumed): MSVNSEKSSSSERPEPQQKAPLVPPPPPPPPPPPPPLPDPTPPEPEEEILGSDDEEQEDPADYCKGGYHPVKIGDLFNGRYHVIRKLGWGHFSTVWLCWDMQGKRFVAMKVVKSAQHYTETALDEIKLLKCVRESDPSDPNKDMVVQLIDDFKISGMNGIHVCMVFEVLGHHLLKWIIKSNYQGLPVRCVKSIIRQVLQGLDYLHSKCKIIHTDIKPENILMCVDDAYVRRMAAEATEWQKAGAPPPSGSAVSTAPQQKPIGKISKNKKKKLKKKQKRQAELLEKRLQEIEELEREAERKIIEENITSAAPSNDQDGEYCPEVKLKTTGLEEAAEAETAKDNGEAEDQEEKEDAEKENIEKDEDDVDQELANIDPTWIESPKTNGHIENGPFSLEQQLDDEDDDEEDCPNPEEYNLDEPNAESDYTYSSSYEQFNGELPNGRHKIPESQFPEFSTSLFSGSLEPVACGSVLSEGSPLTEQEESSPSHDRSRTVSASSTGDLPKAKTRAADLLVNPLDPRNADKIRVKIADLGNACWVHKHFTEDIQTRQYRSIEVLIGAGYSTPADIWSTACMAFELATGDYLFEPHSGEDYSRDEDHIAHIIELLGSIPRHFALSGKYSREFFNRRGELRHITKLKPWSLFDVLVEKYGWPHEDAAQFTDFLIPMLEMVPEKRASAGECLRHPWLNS

[3] = system: SRp75 protein; assay: In vivo inhibition of SR protein phosphorylation and induction of SR protein degradation, Western blot of HA-SRp75; assay type: cell-based, human; details: Flp-In-293 cells, SRPIN-1 10, 20, or 50 μM with MG132 10 μM, 15 hours
Experimental: FIG. 4C: Evaluation of in-vivo inhibition of SR protein phosphorylation using SRPIN-1, and evaluation of the induction of the accompanying SR protein degradation. HA-SRp75 plasmid was introduced into Flp-In293 cells. After 36 hours, MG132 (final concentration: 10 μM) and SRPIN-1 (10, 20, or 50 μM) were added to the cells. The cells were incubated for 15 hours and then lysed. After SDS-PAGE, the samples were analyzed by Western blotting using anti-HA antibody. Western analysis was also carried out using an antibody against beta actin as a control protein amount.
HA-SRp75 plasmid (1.0 μg) was introduced into Flp-In-293 cells. After 36 hours, MG132 (final concentration: 10 μM) and SRPIN-1 (10, 20, or 50 μM) were added, and the cells were incubated for 15 hours. Then, the cells were lysed with SDS-PAGE sample buffer. The lysate was used as a protein sample. The sample was fractionated by SDS-PAGE and analyzed by Western blotting using the anti-HA antibody. In addition, as a control for protein amount, Western analysis was carried out using anti-beta actin antibody.

[4] = system: Slc:SD rats; assay: Single-dose oral administration toxicity test
Experimental: The toxicity of SRPIN-1 was tested by single-dose oral administration to rats. SRPIN-1 was orally administered at a dose of 125, 250, 500, 1000, or 2000 mg/kg (in a volume of 10 ml per kg) to Slc:SD rats (five weeks old; Japan SLC, Inc.) whose weight gain and general conditions were normal during the acclimatization period. Each group included two males and two females. The animals were fasted from the evening of the day before administration until about four hours after administration. […] Then, SRPIN-1 was likewise orally administered at a dose of 2000 mg/kg to five male and five female Slc:SD rats (five weeks old).

[5] = system: SARS virus (FFM-1); assay type: cell-based
[6] = system: PKC; assay: Kinase phosphorylation assay, same technique as for SRPK1; assay type: biochemical; details: final concentration of 10 μM
[7] = target: T1, SRPK1 (Homo sapiens, UniProt Q96SB4); assay: SRPK1 phosphorylation activity assay with RS peptide and [γ-32P]ATP; assay type: biochemical
T1 construct: made in house; host or cells: E. coli
T1 sequence (Q96SB4 whole entry, species assumed): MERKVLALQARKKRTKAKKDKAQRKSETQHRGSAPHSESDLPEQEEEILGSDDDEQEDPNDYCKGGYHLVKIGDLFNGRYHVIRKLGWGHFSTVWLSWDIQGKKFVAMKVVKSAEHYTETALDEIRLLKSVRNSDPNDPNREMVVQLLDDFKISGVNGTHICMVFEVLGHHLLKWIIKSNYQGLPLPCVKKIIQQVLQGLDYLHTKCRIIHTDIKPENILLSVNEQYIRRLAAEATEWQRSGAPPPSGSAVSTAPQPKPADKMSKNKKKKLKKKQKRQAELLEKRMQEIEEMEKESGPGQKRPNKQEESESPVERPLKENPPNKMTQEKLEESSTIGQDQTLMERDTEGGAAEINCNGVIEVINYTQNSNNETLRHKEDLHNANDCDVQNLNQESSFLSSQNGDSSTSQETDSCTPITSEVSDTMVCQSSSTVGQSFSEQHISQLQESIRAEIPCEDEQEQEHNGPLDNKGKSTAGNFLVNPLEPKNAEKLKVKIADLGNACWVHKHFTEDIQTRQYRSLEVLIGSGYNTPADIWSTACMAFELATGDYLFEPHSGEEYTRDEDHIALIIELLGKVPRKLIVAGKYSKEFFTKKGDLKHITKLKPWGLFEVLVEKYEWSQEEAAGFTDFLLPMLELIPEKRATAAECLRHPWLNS

[8] = system: PKA; details: final concentration of 10 μM
[9] = system: sindbis virus; assay type: cell-based
[10] = target: PRP4 (Homo sapiens, UniProt Q13523); assay: Kinase phosphorylation assay, same technique as for SRPK1; assay type: biochemical; details: final concentration of 10 μM
PRP4, sequence (Q13523 whole entry): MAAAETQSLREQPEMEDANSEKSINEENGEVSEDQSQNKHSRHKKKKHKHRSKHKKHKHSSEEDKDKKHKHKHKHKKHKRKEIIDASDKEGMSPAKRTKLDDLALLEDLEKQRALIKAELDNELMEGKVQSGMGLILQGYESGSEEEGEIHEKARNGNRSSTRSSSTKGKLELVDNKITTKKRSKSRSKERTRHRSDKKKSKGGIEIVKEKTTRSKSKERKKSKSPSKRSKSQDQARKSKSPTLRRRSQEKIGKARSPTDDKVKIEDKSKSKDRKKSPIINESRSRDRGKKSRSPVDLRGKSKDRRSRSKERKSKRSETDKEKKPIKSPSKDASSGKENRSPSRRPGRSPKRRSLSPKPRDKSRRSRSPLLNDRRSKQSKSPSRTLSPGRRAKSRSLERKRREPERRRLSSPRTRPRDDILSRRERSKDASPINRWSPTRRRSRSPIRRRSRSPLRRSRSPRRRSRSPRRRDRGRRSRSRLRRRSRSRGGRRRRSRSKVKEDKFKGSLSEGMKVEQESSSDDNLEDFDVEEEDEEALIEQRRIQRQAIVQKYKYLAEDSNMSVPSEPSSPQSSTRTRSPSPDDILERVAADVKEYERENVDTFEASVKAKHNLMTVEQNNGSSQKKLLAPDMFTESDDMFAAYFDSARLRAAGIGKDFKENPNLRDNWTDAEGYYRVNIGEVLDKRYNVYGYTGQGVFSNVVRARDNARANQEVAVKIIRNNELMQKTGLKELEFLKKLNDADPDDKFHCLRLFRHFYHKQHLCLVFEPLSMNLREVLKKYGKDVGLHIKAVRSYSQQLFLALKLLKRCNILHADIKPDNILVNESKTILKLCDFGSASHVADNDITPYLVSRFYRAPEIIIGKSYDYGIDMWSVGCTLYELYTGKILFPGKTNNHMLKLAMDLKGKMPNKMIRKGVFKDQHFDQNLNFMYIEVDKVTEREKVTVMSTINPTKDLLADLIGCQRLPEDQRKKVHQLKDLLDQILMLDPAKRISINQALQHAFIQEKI

[11] = system: Chinese hamster CHL cells; assay: Chromosomal screening test for mutagenicity in mammalian cells
[12] = system: Cytomegalovirus; details: HFL1 cells

Structure (SMILES): O=C(Nc1cc(C(F)(F)F)ccc1N1CCCCC1)c1ccncc1 [Compound No. 340, N-[2-(1-piperidinyl)-5-(trifluoromethyl)phenyl]isonicotinamide]
- effect in suppressing HIV replication (HIVp24) ([1]; MT-4 cells, 5, 10, or 20 μM): strong effects in suppressing HIV propagation
- amount of HIVp24 ([1]; MT-4 cells, SRPIN-1 0.5, 10, or 20 μM): decreased in an SRPIN-1 concentration-dependent manner
- inhibitory effect on SRPK2 [2]: did not exhibit an inhibitory effect
- HA antibody signal (HA-SRp75) [3]: weakened depending on the concentration of SRPIN-1
- death ([4]; oral 2000 mg/kg, observed for 14 days): none of the male and female rats died
- death ([4]; oral 125, 250, 500, 1000, or 2000 mg/kg, two days after administration): None of the male and female rats died
- general condition ([4]; rat, in vivo, po, 2000 mg/kg): no abnormalities were detectable in their general condition
- SARS virus propagation, concentration dependence (plaque assay) [5]: suppress SARS virus propagation in a concentration-dependent manner
- SARS virus propagation (plaque assay) ([5]; Vero cells, 40 μM, 48 hours): significantly suppressed SARS virus propagation
- viral propagation-suppressing effect compared with Compound No. 349 ([5]; Vero cells, SARS virus): stronger than that of the analog compound (Compound No. 349)
- inhibitory effect on PKC [6]: did not exhibit an inhibitory effect
- IC50 [7]: ~0.4 µM
- inhibitory effect on PKA [8]: did not exhibit an inhibitory effect
- cell damage caused by sindbis virus propagation [9]: dramatically suppressed
- propagation of sindbis virus (plaque assay) [9]: significantly suppressed the propagation of sindbis virus in a concentration-dependent manner
- inhibitory effect on PRP4 [10]: did not exhibit an inhibitory effect
- increase in the number of cells with structural and numerical chromosomal abnormalities ([11]; continuous treatment method (24 hours), 5, 1.58, or 0.5 mg/ml): negative (When the frequency of cell abnormality was less than 5%, the testing substance was judged to be negative)
- increase in the number of cells with structural and numerical chromosomal abnormalities ([11]; short treatment method (+S9 mix, six hours), 5, 1.58, or 0.5 mg/ml): negative (When the frequency of cell abnormality was less than 5%, the testing substance was judged to be negative)
- morphological changes and cell death caused by cytomegalovirus infection ([12]; 20 μM, seven days after infection): neither abnormal morphological changes nor cell death were detectable
- morphological changes induced by the compound ([12]; 40 μM): Partial morphological changes thought to be induced by SRPIN-1 were detectable
